Cc1nn(C)c(=O)n1-c1ccccc1COc1ccn(-c2ccc(Cl)cc2)n1
melting point: 107 to 109 °C
